Assay results: ChEMBL document CHEMBL1152731, “Design, synthesis, and anti-HIV activity of 4'-modified carbocyclic nucleoside phosphonate reverse transcriptase inhibitors” (Bioorg Med Chem, 2009)

Assays:
[1] = Cytotoxicity against human MT2 cells after 5 days; type: cell-based
[2] = tested on: Human immunodeficiency virus 1; assay: Antiviral activity against HIV1 3a with reverse transcriptase K65R mutation in human MT2 cells assessed as inhibition of viral-induced cytopathic effect by XTT assay relative to wild type; type: functional
[3] = tested on: Human immunodeficiency virus 1; assay: Antiviral activity against HIV1 3a with reverse transcriptase M184V mutation in human MT2 cells assessed as inhibition of viral-induced cytopathic effect by XTT assay relative to wild type; type: functional
[4] = tested on: Human immunodeficiency virus 1; assay: Antiviral activity against HIV1 3a infected human MT2 cells assessed as inhibition of viral-induced cytopathic effect after 3 days by XTT assay; type: functional, organism-based; details: Human immunodeficiency virus 1, 3a, MT2, 72 h
[5] = molecular target: Human immunodeficiency virus type 1 reverse transcriptase (Human immunodeficiency virus 1, UniProt Q72547); assay: Inhibition on HIV1 reverse transcriptase p66/p51

| SMILES | CC50 at 120 h [1] [µM] | fold change (FC) [2] | fold change (FC) [3] | EC50 [4] [µM] | IC50 [5] [µM] |
| --- | --- | --- | --- | --- | --- |
| Nc1ncnc2c1ncn2[C@H]1C=C[C@@H](OCP(=O)(O)O)O1 | > 1000 | 2.9 | 2.9 | – | – |
| Nc1ncnc2c1ncn2[C@H]1C=C[C@@H](OCP(=O)(O)O)C1 | – | – | – | 52 | – |
| C[C@@]1(OCP(=O)(O)O)C=C[C@H](n2cnc3c(N)ncnc32)C1 | – | – | – | 244 | – |
| C=C[C@@]1(OCP(=O)(O)OP(=O)(O)OP(=O)(O)O)C=C[C@H](n2cnc3c(N)ncnc32)C1 | – | – | – | – | 0.62 |
| C#C[C@@]1(OCP(=O)(O)O)C=C[C@H](n2cnc3c(N)ncnc32)C1 | 1450 | 2.2 | >30 | 16 | 0.13 |
| Nc1nc(NC2CC2)c2ncn([C@H]3C=C[C@@H](CO)C3)c2n1 [ABACAVIR] | – | 3.8 | 7.1 | 0.32 | 0.13 |
| Nc1ncnc2c1ncn2[C@@H]1O[C@H](OCP(=O)(O)O)C=C1F [GS-9148] | > 1000 | 1.1 | 0.8 | – | – |
| C[C@H](Cn1cnc2c(N)ncnc21)OCP(=O)(O)O [TENOFOVIR ANHYDROUS] | > 1000 | 4.3 | 0.7 | – | – |
| Cc1cn([C@H]2C[C@H](N=[N+]=[N-])[C@@H](CO)O2)c(=O)[nH]c1=O [ZIDOVUDINE] | > 200 | 1.2 | 0.7 | – | – |
